Measured values: PMC3885398, “Evaluation of the Antitumor Effects of BPR1J-340, a Potent and Selective FLT3 Inhibitor, Alone or in Combination with an HDAC Inhibitor, Vorinostat, in AML Cancer” (PLoS ONE, 2014)

Experiments:
Format in all cases: biochemical
FLT4 (VEGFR3) = FLT4 (VEGFR3) (Homo sapiens, UniProt P35916); experiment: Invitrogen SelectScreen kinase profiling; design: purchased Invitrogen SelectScreen; conditions: 100 nM
Protocol: (§1) The FLT3 and VEGFR1/2 Kinase-Glo kinase assays were performed as reported by our earlier study. The VEGFR3 activity analysis was conducted using the same protocol described in the VEGFR1/2 assay. The kinase inhibition profiling and inhibitory activity of FLT3-D835Y, CSF1R, and TRKA were determined by Invitrogen SelectScreen® kinase profiling service (Carlsbad, California, USA).
(§2) BPR1J-340, a urea-substituted 3-phenyl-1H-5-pyrazolylamine-based compound, was designed through chemical modification of sulfonamide series of derivatives (BPR1J-097 series) by a structure-activity relationship (SAR) study (Fig. 1), [32]. For kinase inhibition specificity screening, BPR1J-340 was tested against 59 protein kinases covering the major oncogenic kinases of human protein kinome. […] In addition, BPR1J-340 inhibited TRKA, which is associated with the growth and metastasis of breast cancers, with an IC50 value of 8 nM. Given the high similarity of the ATP binding pockets of FLT3 and the Aurora kinases, the inhibitory activity toward Aurora A and Aurora B were measured. […] Taken together, BPRJ-340 is a selective kinase inhibitor with in vitro activity against FLT3, VEGFR2, VEGFR3 and TRKA receptor tyrosine kinases.

KDR (VEGFR2) = KDR (VEGFR2) (Homo sapiens, UniProt P35968); experiment: Invitrogen SelectScreen kinase profiling; design: purchased Invitrogen SelectScreen; conditions: 100 nM
KDR (VEGFR2), sequence (P35968 20-1356): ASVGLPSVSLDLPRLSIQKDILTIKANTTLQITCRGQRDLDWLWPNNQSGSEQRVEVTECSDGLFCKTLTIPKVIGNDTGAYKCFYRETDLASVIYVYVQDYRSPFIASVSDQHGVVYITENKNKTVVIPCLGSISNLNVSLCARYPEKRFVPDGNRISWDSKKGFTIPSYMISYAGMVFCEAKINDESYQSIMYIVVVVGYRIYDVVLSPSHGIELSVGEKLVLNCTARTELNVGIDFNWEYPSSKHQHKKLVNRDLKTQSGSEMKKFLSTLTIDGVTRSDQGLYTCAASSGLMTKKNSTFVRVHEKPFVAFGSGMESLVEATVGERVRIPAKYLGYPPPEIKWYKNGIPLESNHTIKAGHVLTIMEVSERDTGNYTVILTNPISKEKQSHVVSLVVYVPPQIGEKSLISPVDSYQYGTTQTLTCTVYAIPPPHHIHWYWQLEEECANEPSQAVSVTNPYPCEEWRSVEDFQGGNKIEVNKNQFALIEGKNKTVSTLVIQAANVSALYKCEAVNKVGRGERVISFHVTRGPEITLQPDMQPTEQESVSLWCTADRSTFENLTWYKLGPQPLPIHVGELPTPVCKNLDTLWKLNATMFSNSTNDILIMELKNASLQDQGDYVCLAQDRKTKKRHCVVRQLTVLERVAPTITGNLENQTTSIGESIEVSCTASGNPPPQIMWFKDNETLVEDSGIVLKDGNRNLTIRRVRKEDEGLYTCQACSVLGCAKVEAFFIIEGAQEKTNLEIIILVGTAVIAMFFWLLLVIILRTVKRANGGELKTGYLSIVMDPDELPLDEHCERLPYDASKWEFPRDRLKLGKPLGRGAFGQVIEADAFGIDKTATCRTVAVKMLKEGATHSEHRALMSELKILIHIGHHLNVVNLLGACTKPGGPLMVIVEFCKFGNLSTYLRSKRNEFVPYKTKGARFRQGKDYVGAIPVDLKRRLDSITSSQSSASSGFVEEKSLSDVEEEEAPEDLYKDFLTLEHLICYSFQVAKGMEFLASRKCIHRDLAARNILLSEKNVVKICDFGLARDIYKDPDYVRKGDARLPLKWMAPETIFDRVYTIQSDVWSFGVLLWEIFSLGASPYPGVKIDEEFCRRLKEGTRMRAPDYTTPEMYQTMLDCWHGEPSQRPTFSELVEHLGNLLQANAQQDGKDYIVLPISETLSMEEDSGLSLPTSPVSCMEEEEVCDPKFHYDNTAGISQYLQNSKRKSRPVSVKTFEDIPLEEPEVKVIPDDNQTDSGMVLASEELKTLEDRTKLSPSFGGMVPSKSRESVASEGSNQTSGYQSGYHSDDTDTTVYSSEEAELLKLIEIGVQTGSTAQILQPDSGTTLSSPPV
Protocol: as §1, §2

RPS6KA3 (RSK2) = target: T1, RPS6KA3 (RSK2) (Homo sapiens, UniProt P51812); experiment: Invitrogen SelectScreen kinase profiling; conditions: 100 nM
T1 construct: purchased Invitrogen SelectScreen
T1 sequence (P51812 whole entry): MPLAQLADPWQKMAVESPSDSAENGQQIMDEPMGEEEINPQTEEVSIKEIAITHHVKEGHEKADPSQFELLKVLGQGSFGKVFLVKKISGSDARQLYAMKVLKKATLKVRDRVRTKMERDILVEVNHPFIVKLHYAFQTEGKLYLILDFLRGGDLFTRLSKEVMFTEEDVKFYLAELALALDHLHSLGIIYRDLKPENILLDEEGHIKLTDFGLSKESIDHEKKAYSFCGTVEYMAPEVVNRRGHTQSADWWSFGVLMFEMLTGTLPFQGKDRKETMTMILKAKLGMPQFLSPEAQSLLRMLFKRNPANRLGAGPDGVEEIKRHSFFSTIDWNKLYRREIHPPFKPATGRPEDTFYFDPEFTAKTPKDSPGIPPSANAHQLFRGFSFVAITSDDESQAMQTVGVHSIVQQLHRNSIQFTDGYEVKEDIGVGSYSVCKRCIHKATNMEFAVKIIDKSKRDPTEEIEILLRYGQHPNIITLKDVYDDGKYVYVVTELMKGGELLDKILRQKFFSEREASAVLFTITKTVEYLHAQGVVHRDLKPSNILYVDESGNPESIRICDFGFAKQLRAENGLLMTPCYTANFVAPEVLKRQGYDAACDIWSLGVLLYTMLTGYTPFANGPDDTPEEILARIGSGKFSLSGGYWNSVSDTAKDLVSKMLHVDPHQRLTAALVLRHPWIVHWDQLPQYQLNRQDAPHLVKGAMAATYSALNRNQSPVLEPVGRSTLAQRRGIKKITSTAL
Protocol: as §1, §2

TYK2 = target: T2, TYK2 (Homo sapiens, UniProt P29597); experiment: Invitrogen SelectScreen kinase profiling; conditions: 100 nM
T2 construct: purchased Invitrogen SelectScreen
Protocol: as §1, §2

BRAF = target: T3, BRAF (Homo sapiens, UniProt P15056); experiment: Invitrogen SelectScreen kinase profiling; conditions: 100 nM
T3 construct: purchased Invitrogen SelectScreen
Protocol: as §1, §2

AURKC (Aurora C) = target: T4, AURKC (Aurora C) (Homo sapiens, UniProt Q9UQB9); experiment: Invitrogen SelectScreen kinase profiling; conditions: 100 nM
T4 construct: purchased Invitrogen SelectScreen
Protocol: as §1, §2

MAPK8 (JNK1) = target: T5, MAPK8 (JNK1) (Homo sapiens, UniProt P45983); experiment: Invitrogen SelectScreen kinase profiling; conditions: 100 nM
T5 construct: purchased Invitrogen SelectScreen
Protocol: as §1, §2

RET = target: T6, RET (Homo sapiens, UniProt P07949); experiment: Invitrogen SelectScreen kinase profiling; conditions: 100 nM
T6 construct: purchased Invitrogen SelectScreen
Protocol: as §1, §2

IRAK4 = target: T7, IRAK4 (Homo sapiens, UniProt Q9NWZ3); experiment: Invitrogen SelectScreen kinase profiling; conditions: 100 nM
T7 construct: purchased Invitrogen SelectScreen
T7 sequence (Q9NWZ3 whole entry): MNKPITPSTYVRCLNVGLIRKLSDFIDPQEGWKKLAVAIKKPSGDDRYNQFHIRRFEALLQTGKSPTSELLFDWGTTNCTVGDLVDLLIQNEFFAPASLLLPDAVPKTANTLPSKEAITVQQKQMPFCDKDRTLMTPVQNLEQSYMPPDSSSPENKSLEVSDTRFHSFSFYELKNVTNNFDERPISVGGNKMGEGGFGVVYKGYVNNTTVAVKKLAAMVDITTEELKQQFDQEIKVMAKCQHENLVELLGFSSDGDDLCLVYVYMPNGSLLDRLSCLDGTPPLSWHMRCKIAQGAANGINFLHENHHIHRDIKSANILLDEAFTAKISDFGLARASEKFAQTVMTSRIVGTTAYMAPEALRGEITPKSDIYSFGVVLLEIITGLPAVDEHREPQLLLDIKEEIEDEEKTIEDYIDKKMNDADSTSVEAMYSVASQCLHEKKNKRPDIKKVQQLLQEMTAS
Protocol: as §1, §2

PDGFRA (PDGFR alpha) = target: T8, PDGFRA (PDGFR alpha) (Homo sapiens, UniProt P16234); experiment: Invitrogen SelectScreen kinase profiling; conditions: 100 nM
T8 construct: purchased Invitrogen SelectScreen
Protocol: as §1, §2

SGK (SGK1) = target: T9, SGK (SGK1) (Homo sapiens, UniProt O00141); experiment: Invitrogen SelectScreen kinase profiling; conditions: 100 nM
T9 construct: purchased Invitrogen SelectScreen
T9 sequence (O00141 whole entry): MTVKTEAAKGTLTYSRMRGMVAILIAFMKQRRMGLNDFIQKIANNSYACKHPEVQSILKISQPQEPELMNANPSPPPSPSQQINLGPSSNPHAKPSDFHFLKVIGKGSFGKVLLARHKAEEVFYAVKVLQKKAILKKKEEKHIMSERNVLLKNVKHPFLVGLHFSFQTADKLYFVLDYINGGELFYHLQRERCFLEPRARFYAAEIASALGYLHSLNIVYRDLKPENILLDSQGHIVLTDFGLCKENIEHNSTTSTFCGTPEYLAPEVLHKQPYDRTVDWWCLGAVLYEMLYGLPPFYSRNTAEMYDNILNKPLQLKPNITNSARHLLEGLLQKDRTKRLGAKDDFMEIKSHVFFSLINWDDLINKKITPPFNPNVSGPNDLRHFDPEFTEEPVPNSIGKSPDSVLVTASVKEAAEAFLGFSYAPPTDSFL
Protocol: as §1, §2

SRC = target: T10, SRC (Homo sapiens, UniProt P12931); experiment: Invitrogen SelectScreen kinase profiling; conditions: 100 nM
T10 construct: purchased Invitrogen SelectScreen
T10 sequence (P12931 whole entry): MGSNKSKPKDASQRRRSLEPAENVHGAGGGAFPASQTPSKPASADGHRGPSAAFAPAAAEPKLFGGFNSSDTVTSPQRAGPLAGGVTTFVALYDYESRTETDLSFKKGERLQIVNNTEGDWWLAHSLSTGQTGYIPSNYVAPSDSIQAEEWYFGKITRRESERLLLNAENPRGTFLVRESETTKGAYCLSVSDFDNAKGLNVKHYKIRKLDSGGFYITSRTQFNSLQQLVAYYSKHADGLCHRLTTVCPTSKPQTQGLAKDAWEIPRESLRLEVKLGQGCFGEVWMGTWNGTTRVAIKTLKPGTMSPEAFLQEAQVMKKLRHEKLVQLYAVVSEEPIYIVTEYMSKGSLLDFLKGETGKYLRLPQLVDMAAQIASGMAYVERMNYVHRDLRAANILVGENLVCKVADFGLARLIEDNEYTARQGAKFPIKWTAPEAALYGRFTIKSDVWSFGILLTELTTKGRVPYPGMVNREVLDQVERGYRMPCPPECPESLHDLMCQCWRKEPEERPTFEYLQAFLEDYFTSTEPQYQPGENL
Protocol: as §1, §2

RPS6KA2 (RSK3) = target: T11, RPS6KA2 (RSK3) (Homo sapiens, UniProt Q15349); experiment: Invitrogen SelectScreen kinase profiling; conditions: 100 nM
T11 construct: purchased Invitrogen SelectScreen
T11 sequence (Q15349 whole entry): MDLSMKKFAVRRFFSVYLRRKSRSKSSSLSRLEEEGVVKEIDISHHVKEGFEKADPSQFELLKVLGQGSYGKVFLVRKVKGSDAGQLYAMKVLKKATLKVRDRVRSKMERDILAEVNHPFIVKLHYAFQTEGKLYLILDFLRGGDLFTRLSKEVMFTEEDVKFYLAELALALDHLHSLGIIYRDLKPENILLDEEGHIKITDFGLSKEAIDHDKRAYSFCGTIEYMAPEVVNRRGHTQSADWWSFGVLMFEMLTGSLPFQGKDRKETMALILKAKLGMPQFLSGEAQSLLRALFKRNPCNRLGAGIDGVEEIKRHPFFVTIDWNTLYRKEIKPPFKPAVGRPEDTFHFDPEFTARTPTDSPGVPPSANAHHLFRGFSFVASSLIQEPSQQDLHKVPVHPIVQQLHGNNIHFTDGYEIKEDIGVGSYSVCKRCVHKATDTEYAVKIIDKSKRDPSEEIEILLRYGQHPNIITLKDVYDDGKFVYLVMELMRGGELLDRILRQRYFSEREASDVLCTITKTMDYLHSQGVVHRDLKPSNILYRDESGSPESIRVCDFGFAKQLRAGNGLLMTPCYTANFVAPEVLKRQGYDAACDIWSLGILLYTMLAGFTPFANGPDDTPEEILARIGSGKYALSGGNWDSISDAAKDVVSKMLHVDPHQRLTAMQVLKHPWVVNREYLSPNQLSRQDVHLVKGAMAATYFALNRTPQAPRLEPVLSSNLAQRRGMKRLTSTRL
Protocol: as §1, §2

CHEK1 (CHK1) = target: T12, CHEK1 (CHK1) (Homo sapiens, UniProt O14757); experiment: Invitrogen SelectScreen kinase profiling; conditions: 100 nM
T12 construct: purchased Invitrogen SelectScreen
Protocol: as §1, §2

TYRO3 (RSE) = target: T13, TYRO3 (RSE) (Homo sapiens, UniProt Q06418); experiment: Invitrogen SelectScreen kinase profiling; conditions: 100 nM
T13 construct: purchased Invitrogen SelectScreen
Protocol: as §1, §2

AKT1 (PKB alpha) = target: T14, AKT1 (PKB alpha) (Homo sapiens, UniProt P31749); experiment: Invitrogen SelectScreen kinase profiling; conditions: 100 nM
T14 construct: purchased Invitrogen SelectScreen
Protocol: as §1, §2

CDC42 BPA (MRCKA) = target: T15, CDC42 BPA (MRCKA) (Homo sapiens, UniProt Q5VT25); experiment: Invitrogen SelectScreen kinase profiling; conditions: 100 nM
T15 construct: purchased Invitrogen SelectScreen
Protocol: as §1, §2

CLK1 = target: T16, CLK1 (Homo sapiens, UniProt P49759); experiment: Invitrogen SelectScreen kinase profiling; conditions: 100 nM
T16 construct: purchased Invitrogen SelectScreen
Protocol: as §1, §2

AXL = target: T17, AXL (Homo sapiens, UniProt P30530); experiment: Invitrogen SelectScreen kinase profiling; conditions: 100 nM
T17 construct: purchased Invitrogen SelectScreen
Protocol: as §1, §2

AMPK A1/B1/G1 = target: T18, AMPK A1/B1/G1 (Homo sapiens, UniProt Q13131); experiment: Invitrogen SelectScreen kinase profiling; conditions: 100 nM
T18 construct: purchased Invitrogen SelectScreen
Protocol: as §1, §2

RAF1 (cRAF) Y340D Y341D = target: T19, RAF1 (cRAF) Y340D Y341D (Homo sapiens, UniProt P04049, Y340D/Y341D); experiment: Invitrogen SelectScreen kinase profiling; conditions: 100 nM
T19 construct: purchased Invitrogen SelectScreen
Protocol: as §1, §2

PDGFRB (PDGFR beta) = target: T20, PDGFRB (PDGFR beta) (Homo sapiens, UniProt P09619); experiment: Invitrogen SelectScreen kinase profiling; conditions: 100 nM
T20 construct: purchased Invitrogen SelectScreen
Protocol: as §1, §2

FLT1 (VEGFR1) = target: T21, FLT1 (VEGFR1) (Homo sapiens, UniProt P17948); experiment: Invitrogen SelectScreen kinase profiling; conditions: 100 nM
T21 construct: purchased Invitrogen SelectScreen
Protocol: as §1, §2

PIM1 = target: T22, PIM1 (Homo sapiens, UniProt P11309); experiment: Invitrogen SelectScreen kinase profiling; conditions: 100 nM
T22 construct: purchased Invitrogen SelectScreen
T22 sequence (P11309 whole entry): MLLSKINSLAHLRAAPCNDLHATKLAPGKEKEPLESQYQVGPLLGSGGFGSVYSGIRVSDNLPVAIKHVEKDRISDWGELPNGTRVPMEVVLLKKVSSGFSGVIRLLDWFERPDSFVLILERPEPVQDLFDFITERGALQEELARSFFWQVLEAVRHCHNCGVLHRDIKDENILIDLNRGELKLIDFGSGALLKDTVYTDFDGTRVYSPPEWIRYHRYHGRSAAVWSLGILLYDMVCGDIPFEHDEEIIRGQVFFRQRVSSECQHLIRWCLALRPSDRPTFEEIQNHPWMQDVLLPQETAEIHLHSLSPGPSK
Protocol: as §1, §2

RPS6KA5 (MSK1) = target: T23, RPS6KA5 (MSK1) (Homo sapiens, UniProt O75582); experiment: Invitrogen SelectScreen kinase profiling; conditions: 100 nM
T23 construct: purchased Invitrogen SelectScreen
Protocol: as §1, §2

SGK2 = target: T24, SGK2 (Homo sapiens, UniProt Q9HBY8); experiment: Invitrogen SelectScreen kinase profiling; conditions: 100 nM
T24 construct: purchased Invitrogen SelectScreen
Protocol: as §1, §2

NEK1 = target: T25, NEK1 (Homo sapiens, UniProt Q96PY6); experiment: Invitrogen SelectScreen kinase profiling; conditions: 100 nM
T25 construct: purchased Invitrogen SelectScreen
Protocol: as §1, §2

ABL1 T315I = target: T26, ABL1 T315I (Homo sapiens, UniProt P00519, T315I); experiment: Invitrogen SelectScreen kinase profiling; conditions: 100 nM
T26 construct: purchased Invitrogen SelectScreen
Protocol: as §1, §2

GSK3A (GSK3 alpha) = target: T27, GSK3A (GSK3 alpha) (Homo sapiens, UniProt P49840); experiment: Invitrogen SelectScreen kinase profiling; conditions: 100 nM
T27 construct: purchased Invitrogen SelectScreen
T27 sequence (P49840 whole entry): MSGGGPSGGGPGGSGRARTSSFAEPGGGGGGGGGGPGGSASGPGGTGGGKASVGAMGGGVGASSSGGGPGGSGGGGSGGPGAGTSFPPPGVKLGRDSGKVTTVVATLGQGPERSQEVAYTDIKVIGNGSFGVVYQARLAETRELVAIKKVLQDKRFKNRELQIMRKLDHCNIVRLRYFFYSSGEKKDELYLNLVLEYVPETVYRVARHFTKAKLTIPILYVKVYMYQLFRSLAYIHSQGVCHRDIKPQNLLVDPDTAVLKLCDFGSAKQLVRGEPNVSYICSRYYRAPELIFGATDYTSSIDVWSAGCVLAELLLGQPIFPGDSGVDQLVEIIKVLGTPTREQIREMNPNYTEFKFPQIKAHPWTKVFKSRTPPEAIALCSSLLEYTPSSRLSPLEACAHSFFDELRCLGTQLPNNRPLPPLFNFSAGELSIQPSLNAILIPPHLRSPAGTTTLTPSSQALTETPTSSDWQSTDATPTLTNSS
Protocol: as §1, §2

GSK3B (GSK3 beta) = target: T28, GSK3B (GSK3 beta) (Homo sapiens, UniProt P49841); experiment: Invitrogen SelectScreen kinase profiling; conditions: 100 nM
T28 construct: purchased Invitrogen SelectScreen
Protocol: as §1, §2

CHEK2 (CHK2) = target: T29, CHEK2 (CHK2) (Homo sapiens, UniProt O96017); experiment: Invitrogen SelectScreen kinase profiling; conditions: 100 nM
T29 construct: purchased Invitrogen SelectScreen
Protocol: as §1, §2

AURKA (Aurora A) = target: T30, AURKA (Aurora A) (Homo sapiens, UniProt O14965); experiment: Invitrogen SelectScreen kinase profiling; conditions: 100 nM
T30 construct: purchased Invitrogen SelectScreen
Protocol: as §1, §2

Aurora B kinase = Aurora B kinase (Homo sapiens, UniProt Q96GD4); experiment: Aurora B kinase inhibition
Protocol: as §2

**Q.** Which inhibition at 0.1 µM (FLT4 (VEGFR3)) does the source give for `CCc1cc(NC(=O)NCc2ccc(-c3cc(NC(=O)c4ccc(CN5CCN(C)CC5)cc4)[nH]n3)cc2)no1` [BPR1J-340, N1-(3-4-[([(5-ethyl-3-isoxazolyl)amino]carbonylamino)methyl]phenyl-1H-5-pyrazolyl)-4-[(4-methylpiperazino)methyl]benzamide] here?
**A.** 45%

**Q.** And the inhibition at 0.1 µM (KDR (VEGFR2))?
**A.** 69%

**Q.** And the inhibition at 0.1 µM (RPS6KA3 (RSK2))?
**A.** 0%

**Q.** What about the inhibition at 0.1 µM (TYK2) of the same compound?
**A.** 23%

**Q.** And the inhibition at 0.1 µM (BRAF)?
**A.** 5%

**Q.** And the inhibition at 0.1 µM (AURKC (Aurora C))?
**A.** 19%

**Q.** What about the inhibition at 0.1 µM (MAPK8 (JNK1)) of the same compound?
**A.** 14%

**Q.** And the inhibition at 0.1 µM (RET)?
**A.** 49%

**Q.** What about the inhibition at 0.1 µM (IRAK4) of the same compound?
**A.** 4%

**Q.** And the inhibition at 0.1 µM (PDGFRA (PDGFR alpha))?
**A.** 38%

**Q.** What about the inhibition at 0.1 µM (SGK (SGK1)) of the same compound?
**A.** 11%

**Q.** And the inhibition at 0.1 µM (SRC)?
**A.** 34%

**Q.** What about the inhibition at 0.1 µM (RPS6KA2 (RSK3)) of the same compound?
**A.** 9%

**Q.** What about the inhibition at 0.1 µM (CHEK1 (CHK1)) of the same compound?
**A.** 27%

**Q.** What about the inhibition at 0.1 µM (TYRO3 (RSE)) of the same compound?
**A.** 15%

**Q.** And the inhibition at 0.1 µM (AKT1 (PKB alpha))?
**A.** -2%

**Q.** And the inhibition at 0.1 µM (CDC42 BPA (MRCKA))?
**A.** -8%

**Q.** And the inhibition at 0.1 µM (CLK1)?
**A.** 6%

**Q.** What about the inhibition at 0.1 µM (AXL) of the same compound?
**A.** -4%

**Q.** What about the inhibition at 0.1 µM (AMPK A1/B1/G1) of the same compound?
**A.** 30%

**Q.** And the inhibition at 0.1 µM (RAF1 (cRAF) Y340D Y341D)?
**A.** 4%

**Q.** What about the inhibition at 0.1 µM (PDGFRB (PDGFR beta)) of the same compound?
**A.** 39%

**Q.** What about the inhibition at 0.1 µM (FLT1 (VEGFR1)) of the same compound?
**A.** 15%

**Q.** What about the inhibition at 0.1 µM (PIM1) of the same compound?
**A.** -5%

**Q.** What about the inhibition at 0.1 µM (RPS6KA5 (MSK1)) of the same compound?
**A.** 16%

**Q.** What about the inhibition at 0.1 µM (SGK2) of the same compound?
**A.** 22%

**Q.** What about the inhibition at 0.1 µM (NEK1) of the same compound?
**A.** -6%

**Q.** And the inhibition at 0.1 µM (ABL1 T315I)?
**A.** 15%

**Q.** What about the inhibition at 0.1 µM (GSK3A (GSK3 alpha)) of the same compound?
**A.** -1%

**Q.** And the inhibition at 0.1 µM (GSK3B (GSK3 beta))?
**A.** 36%

**Q.** And the inhibition at 0.1 µM (CHEK2 (CHK2))?
**A.** -6%

**Q.** What about the inhibition at 0.1 µM (AURKA (Aurora A)) of the same compound?
**A.** 15%

**Q.** What about the IC50 (Aurora B kinase) of the same compound?
**A.** 1340 nM
